Source: patent publication US10703746B2, “Mutant IDH1 inhibitors useful for treating cancer” (THE UNITED STATES OF AMERICA, AS REPRESENTED BY THE …, priority 2014, dated 2020)
pIC50: −log10 of the molar value.

Experiments:
IDH1 R132H = IDH1 R132H (Homo sapiens, UniProt O75874, R132H); assay: IDH1 R132H enzymatic assay (NADPH depletion coupled to diaphorase/resazurin); type: biochemical
IDH1 R132C = IDH1 R132C (Homo sapiens, UniProt O75874, R132C); assay: IDH1 R132C enzymatic assay (NADPH depletion coupled to diaphorase/resazurin); type: biochemical
Chain of IDH1 R132C (O75874 whole entry R132C): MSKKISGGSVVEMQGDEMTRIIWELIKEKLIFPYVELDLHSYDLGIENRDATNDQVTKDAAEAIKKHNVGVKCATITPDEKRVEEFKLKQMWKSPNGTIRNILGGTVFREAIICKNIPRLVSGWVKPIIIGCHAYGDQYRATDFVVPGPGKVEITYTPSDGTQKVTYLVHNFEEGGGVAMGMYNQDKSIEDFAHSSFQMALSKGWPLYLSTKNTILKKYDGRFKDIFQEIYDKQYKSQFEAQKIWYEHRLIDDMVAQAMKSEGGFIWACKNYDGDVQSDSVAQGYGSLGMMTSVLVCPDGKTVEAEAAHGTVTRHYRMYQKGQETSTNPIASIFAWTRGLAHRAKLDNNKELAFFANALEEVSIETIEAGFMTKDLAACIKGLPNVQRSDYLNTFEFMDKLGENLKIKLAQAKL
Method in brief: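 NADPH depletion, read via diaphorase/resazurin coupling, after adding substrate at 0.6 mM α-KG and 0.012 mM NADPH. Beforehand, 0.00032 mg/mL enzyme sat with compound 30 min at room temperature in pH 6.5 potassium phosphate buffer with MgCl2, glycerol and BSA.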

[1] = IDH1 R132H enzymatic inhibition, IC50 class
[2] = IDH1 R132C enzymatic inhibition, IC50 class
[3] = enzymatic inhibition, IDH1 R132H
[4] = enzymatic inhibition, IDH1 R132C

Chain of IDH1 R132H (O75874 whole entry R132H): as the sequence (O75874 whole entry R132C) above, with C132H counted along it

| pIC50 (IDH1 R132H; [1]) | pIC50 (IDH1 R132C; [2]) | pIC50 (IDH1 R132H; [3]) | pIC50 (IDH1 R132C; [4]) | SMILES |
| --- | --- | --- | --- | --- |
| > 6.52 | 5.30 to 6.00 |  |  | CCc1cccc(CC)c1-n1c(C)c(C(=O)N2CCNC(=O)C2)cc(-c2nc(-c3ccc(Cl)cc3)cs2)c1=O [Compound 138] |
| < 4.70 | 5.30 to 6.00 |  |  | CCc1cccc(CC)c1-n1c(C)c(C(=O)NCC(C)C)cc(-c2nc(-c3ccc(Cl)cc3)cs2)c1=O [Compound 313] |
| 5.30 to 6.00 | 6.00 to 6.52 |  |  | COc1ccc(N)cc1-n1c2c(cc(-c3nc(-c4ccc(Cl)cc4)cs3)c1=O)C(=O)CC(C)(C)C2 [Compound 122] |
|  |  | > 6.52 | > 6.52 | CCc1cccc(CC)c1-n1c(C=C(C)C)c(C(=O)N2CCN[C@@H](C(=O)O)C2)cc(-c2nc(-c3ccc(C(F)(F)F)cc3)cs2)c1=O [Compound 577] |
|  |  | 4.70 to 5.30 | 4.70 to 5.30 | CCc1cccc(CC)c1-n1c(CC(C)C)c(C(=O)N2CCNCC2)cc(-c2nc(Nc3ccc(Cl)cc3)c(C)s2)c1=O [Compound 412] |
|  |  | 6.00 to 6.52 | 6.00 to 6.52 | CCc1cccc(CC)c1-n1c(CC(C)C)c(C(=O)N2CCNCC2)cc(-c2nc(-c3ccc(Cl)cc3)c(C#N)s2)c1=O [Compound 501] |
| 5.30 to 6.00 | 5.30 to 6.00 |  |  | CCc1cccc(CC)c1-n1c(C)c(C(=O)NC2CCOCC2)cc(-c2nc(-c3ccc(Cl)cc3)cs2)c1=O [Compound 296] |
|  |  | 5.30 to 6.00 | 5.30 to 6.00 | COc1ccc(C(N)=O)cc1-n1c2c(cc(-c3nc(-c4ccc(Cl)cc4)cs3)c1=O)C(=O)CC(C)(C)C2 [Compound 423] |
| < 4.70 | < 4.70 |  |  | COc1ccc(-n2cccc(-c3nc(-c4ccc(Cl)cc4)cs3)c2=O)c(OC)c1 [Compound 165] |
| 5.30 to 6.00 | 5.30 to 6.00 |  |  | CCc1cccc(CC)c1-n1c(C)c(C(=O)NC2CCCCC2O)cc(-c2nc(-c3ccc(Cl)cc3)cs2)c1=O (stereo not drawn) [Compound 270] |
|  |  | 5.30 to 6.00 | 6.00 to 6.52 | CCc1cccc(CC)c1-n1c(C2CCCCC2)c(C(=O)N2CCNCC2)cc(-c2nc(-c3ccc(Cl)cc3)cs2)c1=O [Compound 549] |
| 6.00 to 6.52 | 6.00 to 6.52 |  |  | CC1(C)CC(=O)c2cc(-c3nc(-c4ccc(Cl)cc4)cs3)c(=O)n(-c3ccccc3CC(F)(F)F)c2C1 [Compound 115] |
| 6.00 to 6.52 | > 6.52 |  |  | CCc1cccc(CC)c1-n1c(C=C(C)C)c(C(=O)N2CC3(CCNC3)C2)cc(-c2nc(-c3ccc(Cl)cc3)cs2)c1=O [Compound 344] |
|  |  | > 6.52 | > 6.52 | CCc1cccc(CC)c1-n1c(C2CC2)c(C(=O)N2CCNCC2)cc(-c2nc(-c3ccc(Cl)cc3)cs2)c1=O [Compound 502] |
|  |  | > 6.52 | > 6.52 | CC(C)=Cc1c(C(=O)N2CCNCC2)cc(-c2nc(-c3ccc(Cl)cc3)cs2)c(=O)n1-c1cc(F)ccc1Cl [Compound 409] |
|  |  | > 6.52 | > 6.52 | CCc1cccc(CC)c1-n1c(C=C(C)C)c(C(=O)N2CCNCC2)cc(-c2nc(-c3ccc(C(F)F)cn3)cs2)c1=O [Compound 559] |
|  |  | > 6.52 | > 6.52 | CCc1cccc(CC)c1-n1c(C=C(C)C)c(C(=O)N2CCNCC2C(=O)O)cc(-c2nc(-c3ccc(Cl)cc3)cs2)c1=O (stereo not drawn) [Compound 410] |
| 6.00 to 6.52 | > 6.52 |  |  | CCc1cccc(CC)c1-n1c(CC(C)C)c(C(=O)N2CCNCC2)cc(-c2nc(-c3ccc(OC(C)C)cc3)c(C)s2)c1=O [Compound 257] |
|  |  | 6.00 to 6.52 | 6.00 to 6.52 | CCc1cccc(CC)c1-n1c2c(cc(-c3nc(-c4ccc(Cl)cc4)cs3)c1=O)C(=O)OC(C)(C)C2 [Compound 475] |
| 4.70 to 5.30 | 4.70 to 5.30 |  |  | COc1ccc(OC)c(-n2c3c(cc(-n4cnc(-c5ccccc5)c4)c2=O)C(=O)CC(C)(C)C3)c1 [Compound 154] |
| < 4.70 | < 4.70 |  |  | O=C1CCCc2c1cc(-c1nc(-c3ccc(Cl)cc3)cs1)c(=O)n2-c1ccncc1 [Compound 368] |
| 5.30 to 6.00 | 5.30 to 6.00 |  |  | Cc1ccc([N+](=O)[O-])cc1-n1c2c(cc(-c3nc(-c4ccc(Cl)cc4)cs3)c1=O)C(=O)CC(C)(C)C2 [Compound 182] |
| > 6.52 | > 6.52 |  |  | CC(C)=Cc1c(C(=O)N2CCNCC2)cc(-c2nc(-c3ccc(Cl)cc3)cs2)c(=O)n1-c1cc(Cl)ccc1Cl [Compound 359] |
| > 6.52 | > 6.52 |  |  | CCOc1ccc(Cl)cc1-n1c(C=C(C)C)c(C(=O)N2CCNCC2)cc(-c2nc(-c3ccc(C(F)(F)F)cc3)cs2)c1=O [Compound 665] |
|  |  | > 6.52 | > 6.52 | CCOc1ncc(F)cc1-n1c(C=C(C)C)c(C(=O)N2CCNCC2)cc(-c2nc(-c3ccc(C(F)(F)F)cc3)cs2)c1=O [Compound 568] |
|  |  | > 6.52 | > 6.52 | CCc1ccc(Cl)cc1-n1c(C=C(C)C)c(C(=O)N2CCNCC2)cc(-c2nc(-c3ccc(C(F)(F)F)nc3)cs2)c1=O [Compound 491] |
| 5.30 to 6.00 | 6.00 to 6.52 |  |  | CCc1cccc(CC)c1-n1c(C(C)C)c(C(=O)N2CCNC[C@H]2C)cc(-c2nc(-c3ccc(Cl)cc3)cs2)c1=O [Compound 37] |

| pIC50 (IDH1 R132H; [1]) | pIC50 (IDH1 R132C; [2]) | pIC50 (IDH1 R132H; [3]) | pIC50 (IDH1 R132C; [4]) | SMILES |
| --- | --- | --- | --- | --- |
| 6.00 to 6.52 | 5.30 to 6.00 |  |  | CCc1ncc(OC)cc1-n1c(C=C(C)C)c(C(=O)N2CCNCC2)cc(-c2nc(-c3ccc(C(F)(F)F)nc3)cs2)c1=O [Compound 334] |
|  |  | 4.70 to 5.30 | 4.70 to 5.30 | COc1cc(Cl)ccc1-n1c2c(cc(-c3nc(-c4ccc(Cl)cc4)cs3)c1=O)C(=O)CC(C)(C)C2 [Compound 579] |
| 4.70 to 5.30 | 4.70 to 5.30 |  |  | CCc1cccc(CC)c1-n1c(CC(C)C)c(C(=O)N2CCNCC2)cc(-c2nc(-c3ccc(OCc4ccccc4)cc3)c(C)s2)c1=O [Compound 39] |
| 5.30 to 6.00 | 5.30 to 6.00 |  |  | CCc1cccc(CC)c1-n1c(C)c(C(=O)NC2CC2)cc(-c2nc(-c3ccc(Cl)cc3)cs2)c1=O [Compound 265] |
| < 4.70 | < 4.70 |  |  | O=C1CCCc2c1cc(-c1nc(-c3ccc(Cl)cc3)cs1)c(=O)n2-c1ccccn1 [Compound 350] |
|  |  | > 6.52 | > 6.52 | CCOc1ncc(F)cc1-n1c(C=C(C)C)c(C(=O)N2CCNCC2)cc(-c2nc(-c3ccc(Cl)cc3)cs2)c1=O [Compound 488] |
| 4.70 to 5.30 | 5.30 to 6.00 |  |  | CCc1cccc(CC)c1-n1c(C)c(C(=O)N2CCN[C@H](C(=O)OC)C2)cc(-c2nc(-c3ccc(Cl)cc3)cs2)c1=O [Compound 41] |
| 5.30 to 6.00 | 5.30 to 6.00 |  |  | CCc1cccc(CC)c1-n1c(C)c(C(=O)NCCCN)cc(-c2nc(-c3ccc(Cl)cc3)cs2)c1=O [Compound 6] |
|  |  | 6.00 to 6.52 | > 6.52 | CCc1cccc(CC)c1-n1c(CC(C)C)c(C(=O)N2CCNCC2)cc(-c2nc(-c3ccc(Cl)c(Cl)c3)c(C)s2)c1=O [Compound 551] |
| 4.70 to 5.30 | 5.30 to 6.00 |  |  | CCc1cccc(CC)c1-n1c(-c2ccn(-c3ccccc3)n2)c(C(=O)N2CCNCC2)cc(-c2nc(-c3ccc(Cl)cc3)cs2)c1=O [Compound 317] |
| > 6.52 | > 6.52 |  |  | COc1ncc(F)cc1-n1c(C=C(C)C)c(C(=O)N2CCNCC2)cc(-c2nc(-c3ccc(Cl)cc3)cs2)c1=O [Compound 361] |
|  |  | 6.00 to 6.52 | 5.30 to 6.00 | COc1ccc(F)cc1-n1c(C=C(C)C)c(C(=O)N2CCNCC2)cc(-c2ccn(-c3ccc(C(F)(F)F)cc3)n2)c1=O [Compound 532] |
|  |  | > 6.52 | > 6.52 | CCc1ccc(F)cc1-n1c(C=C(C)C)c(C(=O)N2CCNCC2)cc(-c2nc(-c3ccc(C(F)(F)F)cc3)cs2)c1=O [Compound 583] |
| 6.00 to 6.52 | > 6.52 |  |  | CCc1cccc(CC)c1-n1c(CC(C)C)c(C(=O)NC2CCNCC2)cc(-c2nc(-c3ccc(Cl)cc3)cs2)c1=O [Compound 263] |
| 4.70 to 5.30 | 4.70 to 5.30 |  |  | Cc1cccc(CN2CCN(C)CC2)c1-n1c2c(cc(-c3nc(-c4ccc(Cl)cc4)cs3)c1=O)C(=O)CC(C)(C)C2 [Compound 17] |
| 5.30 to 6.00 | 6.00 to 6.52 |  |  | CSc1ccccc1-n1c2c(cc(-c3nc(-c4ccc(Cl)cc4)cs3)c1=O)C(=O)CC(C)(C)C2 [Compound 164] |
| 4.70 to 5.30 | 4.70 to 5.30 |  |  | CC1(C)CC(=O)c2cc(-c3nc(-c4ccc(Cl)cc4)cs3)c(=O)n(-c3ccccn3)c2C1 [Compound 121] |
| 6.00 to 6.52 | 6.00 to 6.52 |  |  | CCc1cccc(CC)c1-n1c2c(cc(-c3nc(-c4ccc(C)cc4)cs3)c1=O)C(=O)CC(C)(C)C2 [Compound 233] |
|  |  | > 6.52 | > 6.52 | CCc1cccc(CC)c1-n1c(C=C(C)C)c(C(=O)N2CCNCC2)cc(-c2nc(-c3ccc(C(F)(F)F)nc3)cs2)c1=O [Compound 418] |
| > 6.52 | > 6.52 |  |  | CCc1cccc(CC)c1-n1c(CC(C)C)c(C(=O)N2CCNC(C(=O)O)C2)cc(-c2nc(-c3ccc(Cl)cc3)cs2)c1=O (stereo not drawn) [Compound 171] |
| < 4.70 | 4.70 to 5.30 |  |  | COc1c(C(=O)O)cccc1-n1c2c(cc(-c3nc(-c4ccc(Cl)cc4)cs3)c1=O)C(=O)CC(C)(C)C2 [Compound 174] |
|  |  | 5.30 to 6.00 | 6.00 to 6.52 | CCc1cccc(CC)c1-n1c(C2CCOCC2)c(C(=O)N2CCNCC2)cc(-c2nc(-c3ccc(Cl)cc3)cs2)c1=O [Compound 446] |
|  |  | 6.00 to 6.52 | 5.30 to 6.00 | CCc1ccc(Cl)c(CC)c1-n1c(C)c(C(=O)N2CCNCC2)cc(-c2nc(-c3ccc(Cl)cc3)cs2)c1=O [Compound 600] |
|  |  | > 6.52 | > 6.52 | CCc1cccc(CC)c1-n1c(C2CCCO2)c(C(=O)N2CCNCC2)cc(-c2nc(-c3ccc(Cl)cc3)cs2)c1=O (stereo not drawn) [Compound 457] |
|  |  | 6.00 to 6.52 | > 6.52 | CC1(C)CC(=O)c2cc(-c3nc(-c4ccc(Cl)cc4)cs3)c(=O)n(-c3sccc3C#N)c2C1 [Compound 402] |
| 6.00 to 6.52 | > 6.52 |  |  | CCc1cccc(CC)c1-n1c(C(C)C)c(C(=O)N2CCN[C@H](C(=O)O)C2)cc(-c2nc(-c3ccc(Cl)cc3)cs2)c1=O [Compound 264] |
| > 6.52 | > 6.52 |  |  | CCc1cccc(CC)c1-n1c(CC(C)C)c(C(=O)N2CCN[C@@H](CO)C2)cc(-c2nc(-c3ccc(Cl)cc3)cs2)c1=O [Compound 8] |
